Data: article PMC9504950, “In Vitro and In Silico Analyses of New Cinnamid and Rosmarinic Acid-Derived Compounds Biosynthesized in Escherichia coli as Leishmania amazonensis Arginase Inhibitors” (Pathogens, 2022)
Where “and” joins values, the source holds several entries; their conditions need not be identical. Equal values may be shown once. Read-outs that look alike come from different tables or passages of the source. Each block holds one compound with its values, some of them ahead of it.

Assays:
[1] = molecular target: T1, L. amazonensis arginase (L-ARG) (Leishmania amazonensis, UniProt O96394); settings: cited from earlier work
[2] = test system: promastigotes and amastigotes of L. amazonensis; settings: cited from earlier work
L. amazonensis = test system: L. amazonensis; set-up: method as in PMID 24906989; settings: BALB/c mice, cutaneous leishmaniasis; cited from earlier work
[3] = molecular target: T1, L. amazonensis arginase (L-ARG); test: Recombinant L. amazonensis arginase (L-ARG) inhibition, IC50; format: biochemical; settings: for fold decrease of enzyme inhibition relative to compound 4: compared with compound 4; for IC50: mean ± SEM
Protocol: (§1) Recombinant L-ARG was expressed and purified as previously described. A stock solution of 70 mM was prepared in DMSO and was stored at −20 °C for each compound just before the experiment. The concentration that inhibited 50% of the catalytic activity of the enzyme (IC50) was determined using an inhibitor concentration from 200 μM to 0.05 μM; the concentrations were obtained via a serial dilution in water (1:4). The kinetics were determined using three concentrations of the substrate and three concentrations of inhibitor, as previously described. Two independent experiments were performed in triplicate with a coefficient of nonlinear regression R^2 ≥ 0.85. The sigmoidal model (log IC50) was used to determine the IC50 using GraphPad Prism 7 software for Windows (San Diego, CA, USA).

[4] = molecular target: T1, L. amazonensis arginase (L-ARG); test: Kinetics of arginase inhibition (Dixon and Cornish-Bowden plots); format: biochemical; settings: for Mechanism of Inhibition: Dixon and Cornish-Bowden plots; for Ki: Dixon plots, L-arginine 100, 50 and 25 mM
Protocol: The enzyme kinetics were performed to determine the mechanism of inhibition and the dissociation constant (Ki) of the compounds via the simultaneous analysis of the Dixon and Cornish-Bowden plots. The Ki inhibition constants (complex EI), which refer to the equilibriums established between the […] in the presence of an inhibitor (I), were determined (Table 1).
as §1
Figure 1 Kinetics of the arginase inhibition by compounds 2–4, 7, and 9. The mechanism of action was determined by an analysis of the Dixon (A) and Cornish-Bowden plots (B); the Ki constant was measured using Dixon plots by calculating the X values at the intersection point of the lines. […] Each drawn point represents the mean of three independent experiments (n = 3) performed in duplicate.

[5] = recombinant L-ARG, read-out: IC50

SMILES: O=C(O)/C=C/c1ccc(O)c(O)c1 [caffeic acid]
L-ARG inhibition (in words) [1]: inhibitory profile
activity against the promastigotes and amastigotes of L. amazonensis [2]: active
lesion size and parasite burden (L. amazonensis): effective in reducing the lesion size and parasite burden

fold decrease of enzyme inhibition relative to compound 4 [3]: approximately 20 times
IC50 [3, 5]: 36.2 µM and 36 µM
Mechanism of Inhibition [4]: Noncompetitive
Ki [4]: 74 ± 8 µM
SMILES: O=C(O)CC(OC(=O)/C=C/c1ccc(O)c(O)c1)C(=O)O (stereo not shown) [Compound 7]

SMILES: C[C@@H]1O[C@@H](O[C@@H]2[C@@H](O)[C@H](OCCc3ccc(O)c(O)c3)O[C@H](CO)[C@H]2OC(=O)/C=C/c2ccc(O)c(O)c2)[C@H](O)[C@H](O)[C@H]1O [verbascoside]
L-ARG inhibition (in words) [1]: inhibits
activity against promastigote and intracellular amastigotes of the parasite [2]: active

IC50 ([3]; recombinant L-ARG): Inactive
SMILES: O=C(/C=C/c1ccc(O)cc1)O[C@H](Cc1ccccc1)C(=O)O [Compound 1]

SMILES: O=C(/C=C/c1ccc(O)c(O)c1)O[C@H](Cc1ccc(O)c(O)c1)C(=O)O [rosmarinic acid]
L-ARG inhibition (in words) [1]: inhibitory profile
activity against the promastigotes and amastigotes of L. amazonensis [2]: active
lesion size and parasite burden (L. amazonensis): effective in reducing the lesion size and parasite burden

IC50 ([3]; recombinant L-ARG): Inactive
SMILES: O=C(CCc1ccc(O)cc1)Nc1cc(Cl)ccc1C(=O)O [Compound 10]

IC50 [3, 5]: 2.8 ± 0.9 µM
Mechanism of Inhibition [4]: Noncompetitive
Ki [4]: 5.7 ± 0.7 µM
SMILES: O=C(CCc1ccc(O)c(O)c1)O[C@H](Cc1ccccc1)C(=O)O [Compound 2]

IC50 [3, 5]: 3 ± 0.2 µM
Mechanism of Inhibition [4]: Noncompetitive
Ki [4]: 3.9 ± 0.4 µM
SMILES: O=C(CCc1ccc(O)c(O)c1)O[C@H](Cc1ccc(O)c(O)c1)C(=O)O [Compound 3]

IC50 [3, 5]: 1.9 ± 0.7 µM
Mechanism of Inhibition [4]: Noncompetitive
Ki [4]: 2 ± 0.6 µM
SMILES: O=C(CCc1ccc(O)c(O)c1)O[C@H](Cc1ccc(O)cc1)C(=O)O [Compound 4]

SMILES: COc1cc(/C=C/C(=O)O)ccc1O [ferulic acid]
activity against the promastigotes and amastigotes of L. amazonensis [2]: active
lesion size and parasite burden (L. amazonensis): effective in reducing the lesion size and parasite burden

IC50 [3, 5]: 5.5 ± 0.5 µM
Mechanism of Inhibition [4]: Competitive
Ki [4]: 4.6 ± 1.7 µM
SMILES: O=C(/C=C/c1ccc(O)c(O)c1)Nc1cc(F)c(F)cc1C(=O)O [Compound 9]

SMILES: O=C(/C=C/c1ccc(O)c(O)c1)O[C@@H]1C[C@](O)(C(=O)O)C[C@@H](O)[C@H]1O [chlorogenic acid]
activity against the promastigotes and amastigotes of L. amazonensis [2]: active

IC50 ([3]; recombinant L-ARG): Inactive
SMILES: O=C(/C=C/c1ccc(O)cc1)Nc1cc(Cl)ccc1C(=O)O [Compound 8]

fold decrease of enzyme inhibition relative to compound 4 [3]: at least 100 times
L-ARG inhibition (in words) ([3]; recombinant L-ARG): weak inhibition
IC50 [3, 5]: > 200 µM
SMILES: O=C(CCc1ccc(O)cc1)O[C@H](Cc1ccc(O)cc1)C(=O)O [Compound 5]

IC50 ([3]; recombinant L-ARG): Inactive
SMILES: O=C(CCc1ccc(O)cc1)O[C@H](Cc1ccccc1)C(=O)O [Compound 6]
